Source: PMC8165744, “Identification of an Alternative Glycyrrhizin Metabolite Causing Liquorice-Induced Pseudohyperaldosteronism and the Development of ELISA System to Detect the Predictive Biomarker” (Frontiers in Pharmacology, 2021)
Read-outs that look alike come from different tables or passages of the source.

Legend:
[1] = pharmacokinetics of GA metabolites in EHBRs orally treated with GA; format: in vivo, Eisai hyperbilirubinuria rats (EHBRs); conditions: Eisai hyperbilirubinuria rat (EHBR), rat, plasma, 200 mg/kg, GA 0.20 g/kg oral, read-out: plasma concentration 12 h after oral administration of GA
Experimental: Pharmacokinetic Experiments of GA Metabolites in EHBRs Orally Treated With GA
Male and female EHBRs (9 week-old) were anaesthetized by an intraperitoneal injection of urethane (1 g/kg) and their jugular veins were exposed. GA suspended in 0.5% carboxymethylcellulose was then administered orally (200 mg/kg) to the unconscious rats, and blood samples were collected from the jugular vein while urine samples were collected using a metabolic cage at appropriate times over a 12 h period.
LC-MS/MS Analysis for GA Metabolites
Briefly, after diluting serum and urine samples with water to obtain suitable concentrations, they were digested with subtilisin (0.91 U/ml), followed by the addition of astragaloside IV (used as an internal standard; Fujifilm Wako Pure Chemicals, Osaka, Japan), and deproteinized using 80% ethanol. […] The transitions (precursor to daughter) monitored and retention times were as follows: ESI(+), 743.4 to 567.5 m/z (35 and 25 V for cone voltage and collision energy, respectively) for compound 1 (8.1 min); ESI(–), 565.5 to 96.5 m/z (80 and 60 V) for 2 (9.6 min); ESI(–), 549.5 to 96.5 m/z (80 and 60 V) for 3 (15.4 min); ESI(+), 727.3 to 551.2 m/z (30 and 25 V) for 4 (11.3 min); ESI(+), 647.6 to 453.6 m/z (40 and 20 V) for 3MGA (15.0 min); ESI(+), 471.3 to 91.0 m/z (40 and 20 V) for GA (13.4 min); ESI(+), 823.5 to 453.6 m/z (30 and 20 V) for GL (18.4 min); and ESI(+), 785.4 to 143.0 m/z (30 and 20 V) for astragaloside IV (3.0 min). Linear regressions over the concentration range of 2 nM to 2 µM for each compound were examined using the peak-area ratio of the compounds to their internal standards and the least-squares method (r ^ 2 > 0.98). The detection limits for 1, GL, and GA were 6.4 nM, and those for 2, 3, and 4, and 3MGA were 3.2 nM.
FIGURE 5 Pharmacokinetic profiles of glycyrrhizin (GL) metabolites in female (A–C) and male (D–F) Eisai hyperbilirubinuria rats (EHBRs). […] Data of GA, 3MGA, 1, 2, and 3 in (A) and GA, 3MGA, 2, and 3 for (D) are relatively small; their magnified graphs are shown in (B,E), respectively. Concentrations of GA metabolites were measured using liquid chromatography-tandem mass spectrometry (LC-MS/MS), and data are means ± standard error (S.E: n = 4).

[2] = molecular target: T1, human OAT3 (Homo sapiens, UniProt Q8TCC7); test: uptake into HEK293 cells transfected with OAT3; format: in vitro ADME; conditions: HEK293, EHBR plasma, 37°C, 15 min
T1 construct: expressed in transfected cells; host or cells: HEK293 cells, pCI-neo vector
T1 sequence (Q8TCC7 1-542): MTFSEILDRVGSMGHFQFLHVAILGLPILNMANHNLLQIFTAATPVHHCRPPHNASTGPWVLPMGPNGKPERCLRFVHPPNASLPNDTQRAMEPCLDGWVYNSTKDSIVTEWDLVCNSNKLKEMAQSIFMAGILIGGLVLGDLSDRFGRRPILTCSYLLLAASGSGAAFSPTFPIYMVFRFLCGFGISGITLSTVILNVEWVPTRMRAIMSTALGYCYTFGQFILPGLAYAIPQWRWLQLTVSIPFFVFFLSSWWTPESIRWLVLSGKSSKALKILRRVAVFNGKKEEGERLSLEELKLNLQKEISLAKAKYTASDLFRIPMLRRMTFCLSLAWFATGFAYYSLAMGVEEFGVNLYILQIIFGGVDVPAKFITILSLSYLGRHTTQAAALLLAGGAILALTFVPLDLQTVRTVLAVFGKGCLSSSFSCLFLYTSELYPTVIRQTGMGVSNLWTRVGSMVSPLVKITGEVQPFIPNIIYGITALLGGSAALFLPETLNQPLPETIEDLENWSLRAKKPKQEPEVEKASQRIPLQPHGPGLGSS
Excerpt: Uptake of Compound 4 by Rat Kidney Slices and Cells Expressing OAT1 and 3
For the uptake study of 4 into rat kidney slices, we used the samples obtained in our previous study ([Ishiuchi et al., 2019]). For the uptake study of 4 into the cells transiently expressing OAT1 and OAT3, we used the same protocol as in our previous study ([Makino et al., 2012]). cDNAs encoding human OAT1 and OAT3 inserted into pGH19 were generously supplied by Prof. Mitsuru Sugawara (Hokkaido University, Sapporo, Japan), and then subcloned into a pCI-neo mammalian expression vector (Promega, Madison, WI, United States). We used the same pooled plasma of male EHBRs orally treated with GA for 12 h used in our previous study ([Ishiuchi et al., 2019]).
FIGURE 2 Inhibitory effects of compound 4 on type-2 11β-hydroxysteroid dehydrogenase (11β-HSD2) using rat kidney microsome (A), and the uptake of 4 into rat kidney slices (B) or into HEK293 cells transfected with organic anion transporter (OAT) 1 (C) or OAT3 (D). […] Then, the amount of [^3H] cortisol was measured. […] Concentrations of 4 in kidney slice homogenates were measured using liquid chromatography-tandem mass spectrometry (LC-MS/MS). **p < 0.01 vs 4°C group using Student’s t-test (C) Male EHBRs were orally treated with GA (200 mg/kg) and their plasma samples were collected […] after treatment. […] Then, concentrations of 4 in cells were measured using LC-MS/MS. […]

concentration at 12 h ([1]; female EHBRs): 208 µM
concentration at 12 h ([1]; male EHBRs): 237 µM
uptake into cells expressing OAT3 vs mock cells [2]: significantly higher
SMILES: CC1(C)[C@@H](OS(=O)(=O)O)CC[C@]2(C)[C@H]3C(=O)C=C4[C@@H]5C[C@@](C)(C(=O)O[C@@H]6O[C@H](C(=O)O)[C@@H](O)[C@H](O)[C@H]6O)CC[C@]5(C)CC[C@@]4(C)[C@]3(C)CC[C@@H]12 [Compound 4, 18β-glycyrrhetyl-3-O-sulfate-30-O-glucuronide]
